Reference: US8987449B2, “Medicine for treating ischemic brain injury and its sequelae, and preparation method thereof” (Haimin Lei, priority 2011, dated 2015)

Key:
Ca^2+—Mg^2+ ATPase = assay: Ca2+-Mg2+ ATPase of MCAO rats (brain homogenate, kit); type: in vivo, rat; conditions: ischemia side brain homogenate, model group 5.32 ± 2.61
Method: 140 healthy SD male rats, weighing 280-300 g, provided by BeiJing Vital River Laboratories, certificate No.: SCXK (Jing) 2002-2003.
1.3 Experimental reagents: 0.9% physiological saline, Ca^2+—Mg^2+ enzyme kit
10% chloral hydrate 0.35 g/kg was injected into the abdominal cavity of a rat to anesthetize thereof. The rat was fixed as supine position. The skin was disinfected thereof by 75% medical alcohol. It was cut right in the middle of the neck. The right common carotid artery, internal carotid artery and external carotid artery were separated and the common carotid artery and external carotid artery were ligated. The internal carotid artery was clamped with a bulldog clamp. A cut was made at the crotch of the external carotid artery and the internal carotid artery followed by releasing the bulldog clamp. The nylon wire (diameter 0.25 mm, marked at a distance of 18 mm from the head end) was inserted into the cut and the insertion was stopped when some resistance was felt. The insert depth was a little longer than 18 mm to achieve the cerebral ischemia caused by middle cerebral artery occlusion. The internal carotid artery was ligated and the nylon wire was fixed. The muscle and skin were sutured layer by layer. In sham operation group, the right common carotid artery, the external carotid artery and the internal carotid artery were only exposed and separated. The rats were conventionally raised in different cages regularly. 0.5 ml penicillin was continuously injected into every rat for three days after the surgery.
The rat condition was evaluated after 6 h after the surgery when the rats were conscious according to the Zea Longa 5 grades evaluating method, wherein no apparent neurological symptom was evaluated as 0 point; not being able to completely stretch the left front claw was evaluated as 1 point; whirling leftward was evaluated as 2 point; leaning leftward when walking was evaluated as 3 point; having an epileptic seizure, losing consciousness and not being able to walk independently was evaluated as 4 point. The rats getting 1-3 point were selected for the subsequent experiment.
The rats were divided into 7 groups in the experiment, that is, sham operation group, model group, Nimodipine group, LQC-T4 large dosage group, LQC-T4 small dosage group, TMP group, and TMP+Vanillic acid group. The model rats getting 1 point were distributed randomly into the model group and other administration group, while the rats getting 2 point and 3 point were distributed randomly into above 6 groups according the above method and sham operation group was not involved in the above grouping. […]

MCAO rats = assay: Neurological symptoms of MCAO rats (Zea Longa 5 grades); type: in vivo, rat; conditions: 0-4 points; for neurological symptoms evaluation (3 d): model group 1.74 ± 0.73; for neurological symptoms evaluation (7 d): model group 1.61 ± 0.96
Method: 140 healthy SD male rats, weighing 280-300 g, provided by Beijing Vital River Laboratories, certificate No.: SCXK (Jing) 2002-2003.
Tetramethylpyrazine (TMP), vanillic acid, LQC-T4 (self made), the purity ≧98%, determined using high performance liquid chromatography (HPLC), which met the requirement of experiment, the powder being carefully sealed and preserved at 4° C., and imodipine (ShanDong XinHua Pharmaceutical CO., Ltd, batch No.: 0908164).
The method of [Koizumi J, Yoshida Y, Nakazawa T, Ooneda G. Experimental studies of ischemia brain edema, I: A new experimental model of cerebral embolism in rats in which recirculation can be introduced in the ischemic area[J]. Jpn J Stroke, 1986, 8:1-8] was referred to in order to establish the MCAO model. After the rats were anesthetized and the skin thereof was disinfected by ethanol. By cutting right in the middle of the neck, the right common carotid artery, internal carotid artery and external carotid artery were separated and the common carotid artery and external carotid artery were ligated. The internal carotid artery was clamped with a bulldog clamp. A cut was made at the crotch of the external carotid artery and the internal carotid artery followed by releasing the bulldog clamp. The nylon wire was inserted into the cut with the deep of about a little longer than 18 mm to achieve the cerebral ischemia caused by cerebral artery occlusion. Next, the external carotid artery was ligated and the nylon wire was fixed. In sham operation group, the right common carotid artery, the external carotid artery and the internal carotid artery were only exposed and separated. The rats were routinely raised in different cages. 0.5 ml penicillin was continuously injected into every mouse for three days after the surgery.
The evaluating standard of the neurological symptoms of MCAO rats were carried out according to the Zea Longa 5 grades evaluating method, that is, the rats were evaluated when they were conscious after 6 h after the surgery: no apparent neurological symptom, 0 point; not being able to completely stretch the left front claw, 1 point; whirling leftward, 2 point; leaning leftward when walking, 3 point; having an epileptic seizure, losing consciousness and not being able to walk independently, as 4 point. The rats getting 1-3 point were selected for the subsequent experiment. The MCAO rats having the same point were distributed randomly and averagely to each experimental group.
There were sham operation group, model group, Nimodipine group, LQC-T 4 large dosage group, LQC-T4 small dosage group, TMP group and TMP+Vanillic acid group. 0.5% CMC-Na (1 ml·100 g^−1) was administrated intragastrically to the blank group and model group, two dosage groups of 120 mg·kg^−1 and 60 mg·kg^−1 were intragastrically administrated to the LQC-T4(1 ml·100 g^−1) group, and 74 mg·kg^−1 TMP+46 mg·kg^−1 vanillitc acid (1 ml·100 g^−1) were intragastrically administrated, once a day continuously for 10 days.
The SPSS 11.0 software pack was used to carry out the statistical analysis of all the data. The comparison of the enumeration data was carried out with X^2 test P<0.05 had statistical meaning.

[1] = 60 mg/kg intragastrically once a day
[2] = 120 mg/kg intragastrically once a day

Cc1nc(C)c(C)nc1C [TMP, tetramethylpyrazine, reference compound]
Ca—Mg ATPase activity (Ca^2+—Mg^2+ ATPase; 37 mg/kg once per day for 10 days): 9.13 ± 4.11
neurological symptoms evaluation (3 d) (MCAO rats; 37 mg/kg once a day): 1.36 ± 0.50
neurological symptoms evaluation (7 d) (MCAO rats; 37 mg/kg once a day): 1.67 ± 0.78

COc1cc(C(=O)OCc2nc(C)c(C)nc2C)ccc1OCc1nc(C)c(C)nc1C [LQC-T4, (3,5,6-trimethylpyrazine-2-yl)methyl 3-methoxy-4-((3,5,6-trimethylpyrazine-2-yl)methoxy) benzoate]
Ca—Mg ATPase activity (Ca^2+—Mg^2+ ATPase; 60 mg/kg intragastrically once per day for 10 days): 8.91 ± 4.05
Ca—Mg ATPase activity (Ca^2+—Mg^2+ ATPase; 120 mg/kg intragastrically once per day for 10 days): 10.07 ± 5.15
neurological symptoms evaluation (3 d) (MCAO rats; [1]): 1.40 ± 0.51
neurological symptoms evaluation (7 d) (MCAO rats; [1]): 1.26 ± 0.35
neurological symptoms evaluation (3 d) (MCAO rats; [2]): 1.29 ± 0.47
neurological symptoms evaluation (7 d) (MCAO rats; [2]): 1.60 ± 0.74

COCCOC(=O)C1=C(C)NC(C)=C(C(=O)OC(C)C)C1c1cccc([N+](=O)[O-])c1 (stereo not drawn) [Nimodipine, reference compound]
Ca—Mg ATPase activity (Ca^2+—Mg^2+ ATPase; 30 mg/kg once per day for 10 days): 13.25 ± 5.73
neurological symptoms evaluation (3 d) (MCAO rats; 30 mg/kg once a day): 1.35 ± 0.49
neurological symptoms evaluation (7 d) (MCAO rats; 30 mg/kg once a day): 1.11 ± 0.48
